According to patent US11160814B1, “Methods of treatment for disease from coronavirus exposure” (Ensemble Group Holdings, priority 2020, dated 2021):

Test system: SARS-CoV-2
Assay: Pirfenidone and nintedanib therapy during post-acute phase in patients with severe SARS2 lung damage (Example 3)
Type: in vivo, human
Conditions: one patient
From the text: Pirfenidone and Nintedanib therapy during the post-acute phase mitigates functional and structural lung loss, preserves lung function and structure, and can improve lung capacity and exertional tolerance in patients previously infected SARS2 with significant pulmonary functional and structural loss as a result of their severe infections. This transition period can be determined in any number of ways including but not limited to laboratory, blood serum, urine, fecal, sputum, bronchial lavage, imaging, genomic or tissue-based testing. These patients can also be characterized in one embodiment as those patients with prolonged hospitalization due to lung disease, prolonged ventilation, course of ECMO, high peaks during hospitalization 1.5 times above the upper of normal for LDH, or Ferritin, or CRP, >30% loss in pulmonary capacity or pulmonary reserve, significant scarring and/or fibrosis seen by CT imaging, MRI, PET imaging or chest x-ray, significant reductions in physiological and functional measures as assessed by the objective physiologic and functional assessments described above, and/or a progressive or worsening pattern of any of such measures over time. During this period, pharmacologic agents and combinations as disclosed herein can be administered to limit, contain, or restrain or reduce such damage and limit the progression of severe SARS2 associated lung damage as described above both physiologically functionally and structurally. A patient with severe clinical COVID symptoms and severe lung damage, and >40% loss of pulmonary reserve by objective testing was treated with pirfenidone starting 1 month after discharge. […] A similar patient was treated with a 50% loss of pulmonary reserve.

[1] = severe COVID, >40% loss of pulmonary reserve, treatment from 1 month after discharge, at 3 months

SMILES | structural and physiologic declines (50% loss of pulmonary reserve, initiated two months post-discharge, at 4 months) | PFTs [1] | progression of structural lung damage by high-resolution CT (HRCT) imaging [1]
COC(=O)c1ccc2c(c1)NC(=O)/C2=C(\Nc1ccc(N(C)C(=O)CN2CCN(C)CC2)cc1)c1ccccc1 [nintedanib] | stabilized and arrested | – | –
Cc1ccc(=O)n(-c2ccccc2)c1 [pirfenidone] | – | improvement | reduction in progression
